Blank lines part the entries; values can stand above or below the compound they belong to. Residues, ends and D or L forms follow the SMILES beside them. *: point of attachment. Phenylacetyl(2,3,4,5,6-F5) = O=C(Cc1c(F)c(F)c(F)c(F)c1F)*
Tests used:
[1] = Gel formation / sol-gel transition by vial inverting method; assay type: physicochemical; details: for CGC: Table 5, critical gelation concentration; for Time at room temperature to convert again into a sol state: after gelation at 37° C., regardless of the concentration
Protocol: In a glass bottle of 2 mL (diameter 10 mm) with a screw cap, different compounds with different concentrations were weighed to perform the gelation. A sodium hydroxide solution was added to the suspension in order to adjust the pH value, and vortex and treatment of the sonication were alternately used until a clear compound solution was obtained. Polyethylene glycols having different molecular weights such as 300 g/mol, 600 g/mol, 1000 g/mol, 1500 g/mol, 2000 g/mol, and 3000 g/mol, etc. were also dissolved in the deionized water in order to obtain the polyethylene glycol solution, and the desired concentrations were further controlled. After the polyethylene glycols were completely dissolved, the polyethylene glycol solution was then mixed with the compound solution in order to obtain a compound/PEG solution. By adding hydrochloric acid dropwise, the pH value of the compound/PEG solution was adjusted to a neutral pH value of 7.0-7.4.
Gel formation was determined by a vial inverting method. After the equilibrium at room temperature, a glass bottle with the sample was immersed into a water bath of 37° C. in equilibrium or in an incubator of 37° C. for 30 minutes. After flipping the glass bottle, the sol-gel transition was determined. If the sample without floating was observed within 1 minute, the sample was considered as a gel. […] Each of the temperature data point represented an average temperature of three measurements. At a physiologically relevant temperature of 37° C., the gelation time as a function of the concentration of the block copolymer was measured in the water bath of 37° C.

[2] = Hydrogel degradation in PBS at 37° C.; assay type: physicochemical; details: on the seventh day, PBS pH 7.4, 37° C.
Protocol: Hydrogel degradation was performed in a phosphate buffered solution (PBS) at 37° C. with 5% of CO2. In a 4 mL glass bottle, various 0.3 mL hydrogels were prepared, and 3 mL PBS was added to each of the glass bottles having the hydrogel. At some specific data points, the PBS was removed. The hydrogel was freeze-dried by the freeze-drying method, and the hydrogel degradation rate was calculated according to the following Formula (1),
[formula] wherein W (%) represented the hydrogel degradation rate, Wi represented the initial weight of the hydrogel at day 0, and Wd represented the dry weight of the hydrogel at day of a specific number. Cell Viability Test
In some embodiments of the invention, accordingly, with the remaining conditions the same, the stability of the thermosensitive hydrogel was tested by immersing the samples into a PBS with the pH value of 7.4 at 37° C., and the result thereof was shown in FIG. 10. FIG. 10 was a diagram showing specific degradation percentage over time of the 5F-FF, 5F-FF/PEG300, 5F-FF/PEG600, 5F-FF/PEG1000, 5F-FF/PEG1500, 5F-FF/PEG2000, and 5F-FF/PEG3000 alone in the PBS according to some embodiments of the invention.

[3] = Cell viability test (MTT assay); assay type: cell-based; details: human, hMSC (3A6) cells, read-out: Survival rate
Protocol: The biocompatibilities of different peptide molecules were measured by a cell viability test (MTT assay). hMSC (3A6) cells were seeded in a 24-well plate with a density of 50,000 cells in each well, and the hMSC (3A6) cells were cultured for 24 hours, wherein the 24-well plate comprises a culture medium (DMEM) of 0.5 mL, and the DMEM comprises 10% FBS and 1% penicillin. When seeded in the cells, each of the wells was added with the compounds of different concentrations (0.5 and 5 wt %). After 24 and 48 hours, the original culture medium was replaced by a fresh culture medium, wherein the fresh culture medium was supplemented with a MTT reagent of 0.5 mL (4 mg/mL). After another 4 hours, the culture medium containing the MTT reagent was removed, and DMSO (0.5 mL per well) was then added in order to dissolve formazan crystals. Each of the 24-well plate was transferred to a 96-well plate. The optical density of the cells was measured at 595 nm by a light absorption plate reader (Sunrise, DV990/BV4 GDV Programmable MPT reader). The cells without treated by the compounds were used as the control group. The cell viability percentage, that is, viability (%), of the cells was calculated according to the following Formula (2).
[formula] wherein ODsample represented the optical density of the sample, and ODcontrol represented the optical density of the control group.
In some embodiments of the invention, a cell viability test (MTT assay) was used for a colorimetric assay to analyze the biocompatibilities of the samples. In detail, a 0.5 wt % 5F-FF, a 0.5 wt %: 4.5 wt % 5F-FF/PEG1500, a 0.5 wt %: 4.5 wt % 5F-FF/PEG2000, and a 0.5 wt %: 4.5 wt % 5F-FF/PEG3000 (hydrogels under neutral conditions), and the immortalized human mesenchymal stem cells (hMSC, 3a6) was selected for testing, wherein the results were shown in FIG. 11. FIG. 11 was a diagram showing cell viability of cells treated with 0.5 wt % 5F-FF, 0.5 wt %: 4.5 wt % 5F-FF/PEG1500, 0.5 wt %: 4.5 wt % 5F-FF/PEG2000 and 0.5 wt %: 4.5 wt % 5F-FF/PEG3000 according to some embodiments of the invention.

SMILES: O=C(Cc1ccc(F)cc1)N[C@@H](Cc1ccccc1)C(=O)N[C@@H](Cc1ccccc1)C(=O)O [Sample 1F-FF]
CGC ([1]; pH 7.0): 1 wt %
State at 37° C. ([1]; Table 6, 1F-FF with PEG of different molecular weights, pH 7.0): Gel
Detailed description of the sample ([1]; Table 6, after cooling at 0° C.): Still hydrosol
State at 0° C. (Surrounded by ice cubes) ([1]; Table 6, gel-sol behavior, pH 7.0): Gel

SMILES: O=C(Cc1c(F)cc(F)cc1F)N[C@@H](Cc1ccccc1)C(=O)N[C@@H](Cc1ccccc1)C(=O)O [Sample 3F-FF]
CGC ([1]; pH 7.0): 0.5 wt %

SMILES: O=C(Cc1c(F)c(F)c(F)c(F)c1F)N[C@@H](Cc1ccccc1)C(=O)N[C@@H](Cc1ccccc1)C(=O)O [Sample 5F-FF, 2,3,4,5,6-fluorobenzyl-diphenylalanine]
Time Tsol-gel ([1]; 5F-FF with PEG of different molecular weights, thermosensitive gelation at 37° C., pH 7.0): Gel
CGC (critical gelation concentration) ([1]; 5F-FF, Table 2): 0.5 wt %
Degradation percentage [2]: 35.75%
viability at 24 h, 0.5 wt % ([3]; day 1, hMSC (3A6), hydrogels under neutral conditions): 84%
viability at 48 h, 0.5 wt % ([3]; day 2, hMSC (3A6)): 88.6%
viability at 72 h, 0.5 wt % ([3]; day 3, hMSC (3A6)): 68.2%
viability at 120 h, 0.5 wt % ([3]; day 5, hMSC (3A6)): 73.3%
viability at 168 h, 0.5 wt % ([3]; day 7, hMSC (3A6)): 84%

The next lines start with the values.

Time at room temperature to convert again into a sol state [1]: 20 min
SMILES: CC(NC(=O)C(Cc1cnc[nH]1)NC(=O)CNC(=O)C(Cc1ccccc1)NC(=O)C(Cc1ccccc1)NC(=O)Cc1c(F)c(F)c(F)c(F)c1F)C(=O)NC(C(=O)NC(CC(=O)O)C(=O)O)C(C)C (stereo not drawn) [Sample 5F-FFGHAVD] ({Phenylacetyl(2,3,4,5,6-F5)}-FFGHAVD-OH; configuration not given here)

Time at room temperature to convert again into a sol state [1]: 20 min
SMILES: N=C(N)NCCCC(NC(=O)C(Cc1ccccc1)NC(=O)C(Cc1ccccc1)NC(=O)Cc1c(F)c(F)c(F)c(F)c1F)C(=O)NCC(=O)NC(CC(=O)O)C(=O)O (stereo not drawn) [Sample 5F-FFRGD] ({Phenylacetyl(2,3,4,5,6-F5)}-FFRGD-OH; configuration not given here)
